Patent publication US12509460B2 (Skyhawk Therapeutics, Inc., priority 2019, dated 2025)
Where two headings read alike, the source gives them in different places.

Columns and labels:
[1] = system: MDR1; test: Blood-brain-barrier (BBB) penetration potential via MDCK-MDR1 permeability assay; settings: dog, MDCK-MDR1, pH 7.4, MDCK-MDR1: Efflux
[2] = system: MDR1 (P-gp); test: as above; settings: dog; for Papp A→B at 120 min, 5 μM: MDCK-MDR1, pH 7.4, MDCK-MDR1: Papp A-B; for Papp B→A at 120 min, 5 μM: MDCK-MDR1, pH 7.4, MDCK-MDR1: Papp B-A
[3] = system: MDR1-MDCK cell monolayers; test: as above
[4] = system: mHTT protein in GM04724 (CAG 70/20) Huntington's disease patient lymphoblast cells; test: mHTT protein assay, 2B7-MW1 assay via Mesoscale Discovery (MSD); assay type: cell-based, human
Outline: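 Signal from the 2B7-MW1 antibody pair on MSD, rising with polyQ length and smaller HTT fragments, measured mHTT after 48 h compound exposure (0.6 nM–10 μM) in GM04724 cells. A parallel replicate plate gave CellTiter Glo viability.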

[5] = system: SMN protein in spinal muscular atrophy (SMA) patient fibroblasts (GM03813, Coriell); test: SMN protein assay, Mesoscale Discovery (MSD); assay type: cell-based, human; settings: for EC50: read-out: SMN2 protein EC50
Outline: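 Absolute SMN levels were quantified by MSD against an SMN protein standard curve (1 μg/ml to 19.5 pg/ml) run on each plate. Samples were lysates of GM03813 patient fibroblasts (7000 cells/well) treated 48 hours with compound doses from 2.5 μM down to 0.6 nM.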

[6] = Quantitative splicing assay (HTT), qPCR; assay type: cell-based, human; settings: Homo sapiens, GM04724, 24 h, GM04724 lymphoblasts, read-out: HTT Splicing: E49-50 EC50
Outline: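 TaqMan qPCR on cell-lysate cDNA quantifies cryptic-exon inclusion from HTT intron 49. Lymphoblasts plated at 50,000 cells/well had received compound for 24 h, 0.15 nM-2.5 uM range, 0.1% DMSO.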

[7] = system: SMN FL and SMN Δ7 in spinal muscular atrophy (SMA) patient fibroblasts (GM03813, Coriell); test: Quantitative splicing assay (SMN), qPCR; assay type: cell-based, human; settings: Homo sapiens, Fibroblast, 24 h, read-out: SMN2 Splicing FL EC50
Experimental: Spinal muscular atrophy (SMA) patient fibroblasts (GM03813, Coriell) are plated in 96-well plates at 50,000 cells/well. […] Treated cells are lysed and cDNA synthesized using the Fast Advanced Cells-to-Ct kit (Thermofisher A35378) according to the manufacturer's instructions. 2 μL of each cDNA are used in qPCR reactions. […] Reactions are run in a Quant Studio 6 qPCR instrument with default settings.

[8] = GM04724 Huntington's disease patient lymphoblasts
[9] = SMA patient fibroblasts GM03813, 48 hours, MSD
[10] = SMA patient fibroblasts GM03813, 24 h, qPCR
[11] = GM04724 (CAG 70/20) Huntington's disease patient lymphoblasts
[12] = SMA patient fibroblasts (GM03813), 48 hours
[13] = SMA patient fibroblasts (GM03813)

SMILES	efflux ratio at 120 min, 5 μM ([1]; efflux ratio)	Papp A→B at 120 min, 5 μM ([2]; A-B direction) [×10⁻⁶ cm/s]	Papp B→A at 120 min, 5 μM ([2]; B-A direction) [×10⁻⁶ cm/s]	MDCK-MDR1: % Recov A-B ([3]; A-B direction) [%]	MDCK-MDR1: % Recov B-A ([3]; B-A direction) [%]	EC50 [4, 8] [nM]	EC50 [5, 9] [nM]	EC50 ([6]; qPCR) [nM]	EC50 [7, 10] [nM]	efflux ratio at 120 min, 5 μM [1]	Papp A→B at 120 min, 5 μM ([2]; A-B) [×10⁻⁶ cm/s]	Papp B→A at 120 min, 5 μM ([2]; B-A) [×10⁻⁶ cm/s]	MDCK-MDR1: % Recov A-B ([3]; A-B) [%]	MDCK-MDR1: % Recov B-A ([3]; B-A) [%]	EC50 [4, 11] [nM]	EC50 [5, 12] [nM]	EC50 [6] [nM]	EC50 [7, 13] [nM]	SMN2 protein EC50 [5, 12]
CN(c1ccc(-c2cc3c(=O)n(C)cnc3cc2O)nn1)[C@H]1C[C@@H]2CC[C@@H](N2)[C@H]1F [Compound 85B, 6-(6-(((1R,2R,3S,5S)-2-fluoro-8-azabicyclo[3.2.1]octan-3-yl)(methyl)amino)pyridazin-3-yl)-7-hydroxy-3-methylquinazolin-4(3H)-one]	68	0.71	48.5	98	103	0.01 to 15	0.01 to 15	0.01 to 15	0.01 to 15	–	–	–	–	–	–	–	–	–	–
CN(c1ccc(-c2cc3nccnc3cc2O)nn1)[C@H]1C[C@@H]2CC[C@@H](N2)[C@H]1F [Compound 88B, 7-(6-(((1R,2R,3S,5S)-2-fluoro-8-azabicyclo[3.2.1]octan-3-yl)(methyl)amino)pyridazin-3-yl)quinoxalin-6-ol]	7	6.88	50.5	84	93	16 to 50	0.01 to 15	16 to 50	16 to 50	–	–	–	–	–	–	–	–	–	–
CN(c1ccc(-c2ccc(-n3nccn3)cc2O)nn1)[C@@H]1C[C@H]2CC[C@H](N2)[C@@H]1F [Compound 90A, 2-(6-(((1S,2S,3R,5R)-2-fluoro-8-azabicyclo[3.2.1]octan-3-yl)(methyl)amino)pyridazin-3-yl)-5-(2H-1,2,3-triazol-2-yl)phenol]	3	6.97	22.5	41	69	0.01 to 15	0.01 to 15	0.01 to 15	0.01 to 15	–	–	–	–	–	–	–	–	–	–
CN(c1ccc(-c2ccc(-n3nccn3)cc2O)nn1)[C@H]1C[C@@H]2CC[C@@H](N2)[C@H]1F [Compound 90B, 2-(6-(((1R,2R,3S,5S)-2-fluoro-8-azabicyclo[3.2.1]octan-3-yl)(methyl)amino)pyridazin-3-yl)-5-(2H-1,2,3-triazol-2-yl)phenol]	2	6.56	16.1	43	67	0.01 to 15	16 to 50	0.01 to 15	0.01 to 15	–	–	–	–	–	–	–	–	–	–
CN(c1ccc(-c2cc3c(=O)n(C)ccc3cc2O)nn1)[C@@H]1C[C@H]2CC[C@@H]([C@@H]1F)N2C [Compound 98A, 7-(6-(((1S,2S,3R,5R)-2-fluoro-8-methyl-8-azabicyclo[3.2.1]octan-3-yl)(methyl)amino)pyridazin-3-yl)-6-hydroxy-2-methylisoquinolin-1(2H)-one]	–	–	–	–	–	–	–	–	–	16	4.11	64.7	86	105	101 to 500	16 to 50	101 to 500	101 to 500	–
CN(c1ccc(-c2cc3c(=O)n(C)ccc3cc2O)nn1)[C@H]1C[C@@H]2CC[C@H]([C@H]1F)N2C [Compound 98B, 7-(6-(((1R,2R,3S,5S)-2-fluoro-8-methyl-8-azabicyclo[3.2.1]octan-3-yl)(methyl)amino)pyridazin-3-yl)-6-hydroxy-2-methylisoquinolin-1(2H)-one]	–	–	–	–	–	–	–	–	–	10	5.01	52.6	88	87	16 to 50	16 to 50	16 to 50	16 to 50	–
Cc1nc2cc(-c3ccc(N(C)[C@H]4C[C@@H]5CC[C@H]([C@H]4F)N5C)nn3)c(O)cc2c(=O)n1C [Compound 105B, 7-(6-(((1R,2R,3S,5S)-2-fluoro-8-methyl-8-azabicyclo[3.2.1]octan-3-yl)(methyl)amino)pyridazin-3-yl)-6-hydroxy-2,3-dimethylquinazolin-4(3H)-one]	–	–	–	–	–	–	–	–	–	50	1.28	64.3	114	119	16 to 50	–	51 to 100	101 to 500	E (501 ≤ E ≤ 10.000)
CN(c1ccc(-c2cc3oc(C(=O)N4CCC4)cc3cc2O)nn1)[C@H]1C[C@@H]2CC[C@@H](N2)[C@H]1F [Compound 112B, azetidin-1-yl(6-(6-(((1R,2R,3S,5S)-2-fluoro-8-azabicyclo[3.2.1]octan-3-yl)(methyl)amino)pyridazin-3-yl)-5-hydroxybenzofuran-2-yl)methanone]	–	–	–	–	–	–	–	–	–	95	0.5	47.3	98	81	0.01 to 15	0.01 to 15	16 to 50	0.01 to 15	–
Cc1nc2cc(-c3ccc(N(C)[C@@H]4C[C@H]5CC[C@H](N5)[C@@H]4F)nn3)c(O)cc2c(=O)n1C [Compound 114A, 7-(6-(((1S,2S,3R,5R)-2-fluoro-8-azabicyclo[3.2.1]octan-3-yl)(methyl)amino)pyridazin-3-yl)-6-hydroxy-2,3-dimethylquinazolin-4(3H)-one]	–	–	–	–	–	–	–	–	–	133	0.28	37.8	102	102	0.01 to 15	0.01 to 15	0.01 to 15	16 to 50	–
Cc1nc2cc(-c3ccc(N(C)[C@H]4C[C@@H]5CC[C@@H](N5)[C@H]4F)nn3)c(O)cc2c(=O)n1C [Compound 114B, 7-(6-(((1R,2R,3S,5S)-2-fluoro-8-azabicyclo[3.2.1]octan-3-yl)(methyl)amino)pyridazin-3-yl)-6-hydroxy-2,3-dimethylquinazolin-4(3H)-one]	–	–	–	–	–	–	–	–	–	150	0.29	43	88	94	0.01 to 15	0.01 to 15	0.01 to 15	0.01 to 15	–
